Data published in paper PMC12524621 (2025).

Columns and labels:
Experiment in all cases: fluorescence light-up (580/640 nm)
[1] = tested on: CleavedCV30S_8 (m + f) (DNA, aptamer) AACGACCACCGGTGCGCCGTATTTTTT/AAAAAACAGGTAACTAGCGTCGTCGTT; conditions: 62.5 mM K+, 50 mM Na+, Mg2+ (concentration not stated); 25 mM Tris-HCl pH 7; second best cleavage site
[2] = tested on: G4 parallel short-armed binary sensor + analyte (DNA, G4) AACTAGCTAATCCCACTTTTTTGGGTAGGG/GGGTTGGGTTTTTTCTGGGCATATCCAA/TCGGGCCTTGCGCGATTGGATATGCCCAGGTGGGATTAGCTAGTTGGTGGGGTAATGG; conditions: 62.5 mM K+, 50 mM Na+, Mg2+ (concentration not stated); 25 mM Tris-HCl pH 7, incubated at 37 °C; analyte 1 µM; S/B 3
[3] = tested on: CleavedCV30S_2 (m + f) (DNA, aptamer) AACGACCACCGGTGCGCCGTTTTTTT/AAAAAAACAGGTAACTAGCGTCGTCGTT; conditions: 62.5 mM K+, 50 mM Na+, Mg2+ (concentration not stated); 25 mM Tris-HCl pH 7; best of eight cleavage sites
[4] = tested on: G4 parallel long-armed binary sensor + analyte (DNA, G4) TTACCCCACCAACTAGCTAATCCCACTTTTTTGGGTAGGG/GGGTTGGGTTTTTTCTGGGCATATCCAATCGCGCAA/TCGGGCCTTGCGCGATTGGATATGCCCAGGTGGGATTAGCTAGTTGGTGGGGTAATGG; conditions: 62.5 mM K+, 50 mM Na+, Mg2+ (concentration not stated); 25 mM Tris-HCl pH 7, incubated at 55 °C; analyte 1 µM; S/B 3.3
[5] = tested on: CV30S_8 short-armed binary sensor + analyte (DNA, aptamer) AACTAGCTAATCCCACTTTAACGACCACCGGTGCGCCGTATTTTTT/AAAAAACAGGTAACTAGCGTCGTCGTTTTTCTGGGCATATCCAA/TCGGGCCTTGCGCGATTGGATATGCCCAGGTGGGATTAGCTAGTTGGTGGGGTAATGG; conditions: 62.5 mM K+, 50 mM Na+, Mg2+ (concentration not stated); 25 mM Tris-HCl pH 7, incubated at 37 °C; analyte 1 µM; S/B 2.2
[6] = tested on: CleavedCV30S_3 (m + f) (DNA, aptamer) AACGACCACCGGTGCGCCGTACAGGTTTTTTT/AAAAAAAACTAGCGTCGTCGTT; conditions: 62.5 mM K+, 50 mM Na+, Mg2+ (concentration not stated); 25 mM Tris-HCl pH 7; third best cleavage site
[7] = tested on: G4 antiparallel long-armed binary sensor + analyte (DNA, G4) TTACCCCACCAACTAGCTAATCCCACTTTTTTAGGGTTAGG/GTTAGGGTTAGGGTTTTTTCTGGGCATATCCAATCGCGCAA/TCGGGCCTTGCGCGATTGGATATGCCCAGGTGGGATTAGCTAGTTGGTGGGGTAATGG; conditions: 37.5 mM K+, 50 mM Na+, Mg2+ (concentration not stated); 25 mM Tris-HCl pH 7, incubated at 55 °C; analyte 1 µM; S/B 3.3
[8] = tested on: CleavedCV30S_1 (m + f) (DNA, aptamer) AACGACCACCGGTGTTTTTT/AAAAAACGCCGTACAGGTAACTAGCGTCGTCGTT; conditions: 62.5 mM K+, 50 mM Na+, Mg2+ (concentration not stated); 25 mM Tris-HCl pH 7; fourth best cleavage site
[9] = tested on: G4 parallel (Aptamer_G4_parallel) (DNA, G4) GGGTAGGGCGGGTTGGG; conditions: 62.5 mM K+, 50 mM Na+, Mg2+ (concentration not stated); 25 mM Tris-HCl pH 7, ~22 °C, 1.7 µM each; S/B 1.9, poorest of three
[10] = tested on: CV30S (Aptamer_CV30S) (DNA, aptamer) AACGACCACCGGTGCGCCGTACAGGTAACTAGCGTCGTCGTT; conditions: 62.5 mM K+, 50 mM Na+, Mg2+ (concentration not stated); 25 mM Tris-HCl pH 7, ~22 °C, 1.7 µM each; S/B 7.8
[11] = tested on: CV30S_8 long-armed binary sensor + analyte (DNA, aptamer) TTACCCCACCAACTAGCTAATCCCACTTTAACGACCACCGGTGCGCCGTATTTTTT/AAAAAACAGGTAACTAGCGTCGTCGTTTTTCTGGGCATATCCAATCGCGCAA/TCGGGCCTTGCGCGATTGGATATGCCCAGGTGGGATTAGCTAGTTGGTGGGGTAATGG; conditions: 62.5 mM K+, 50 mM Na+, Mg2+ (concentration not stated); 25 mM Tris-HCl pH 7, incubated at 55 °C; analyte 1 µM; S/B 2.1
[12] = tested on: G4 antiparallel (Aptamer_G4_antiparallel) (DNA, G4) AGGGTTAGGGTTAGGGTTAGGG; conditions: 37.5 mM K+, 50 mM Na+, Mg2+ (concentration not stated); 25 mM Tris-HCl pH 7, ~22 °C, 1.7 µM each; S/B 8.7
[13] = tested on: G4 antiparallel short-armed binary sensor + analyte (DNA, G4) AACTAGCTAATCCCACTTTTTTAGGGTTAGG/GTTAGGGTTAGGGTTTTTTCTGGGCATATCCAA/TCGGGCCTTGCGCGATTGGATATGCCCAGGTGGGATTAGCTAGTTGGTGGGGTAATGG; conditions: 37.5 mM K+, 50 mM Na+, Mg2+ (concentration not stated); 25 mM Tris-HCl pH 7, incubated at 37 °C; analyte 1 µM; S/B 3.2

binding [1]: yes | binding [2]: yes | binding [3]: yes | binding [4]: yes | binding [5]: yes | binding [6]: yes | binding [7]: yes | binding [8]: yes | binding [9]: yes | binding [10]: yes | binding [11]: yes | binding [12]: yes | binding [13]: yes
SMILES: CN(C)c1ccc(C(=C2C=CC(=[N+](C)C)C=C2)c2ccc(N(C)C)cc2)cc1
